Assay results reported in patent US20180334436A1 (VIIV HEALTHCARE UK LIMITED, priority 2015, published 2018).

Tested on: HIV
Test: MT4 assay (anti-HIV activity)
Assay type: cell-based
Details: Human immunodeficiency virus 1, 96 h, antiviral HIV activity in HTLV-1 transformed cell line MT-4; luciferase read 96 hours later; 10 point dose response
Description: Antiviral HIV activity and cytotoxicity values for compounds of the invention from Table 1 were measured in parallel in the HTLV-1 transformed cell line MT-4 based on the method previously described (Hazen et al., 2007, In vitro antiviral activity of the novel, tyrosyl-based human immunodeficiency virus (HIV) type 1 protease inhibitor brecanavir (GW640385) in combination with other antiretrovirals and against a panel of protease inhibitor-resistant HIV (Hazen et al., “In vitro antiviral activity of the novel, tyrosyl-based human immunodeficiency virus (HIV) type 1 protease inhibitor brecanavir (GW640385) in combination with other antiretrovirals and against a panel of protease inhibitor-resistant HIV”, Antimicrob. Agents Chemother. 2007, 51: 3147-3154; and Pauwels et al., “Sensitive and rapid assay on MT-4 cells for the detection of antiviral compounds against the AIDS virus”, J. of Virological Methods 1987, 16: 171-185).
Luciferase activity was measured 96 hours later by adding a cell titer glo (Promega, Madison, Wis.). Percent inhibition of cell protection data was plotted relative to no compound control. Under the same condition, cytotoxicity of the compounds was determined using cell titer Glo™ (Promega, Madison, Wis.). IC50s were determined from a 10 point dose response curve using 3-4-fold serial dilution for each compound, which spans a concentration range >1000 fold.
These values are plotted against the molar compound concentrations using the standard four parameter logistic equation:
y=((Vmax*x̂n)/(K̂n+x̂n))+Y2
Y2=minimum y n=slope factor
Vmax=maximum y x=compound concentration [M]

Row | SMILES | IC50 [nM]
1 | Cc1c(-c2c(C)c3c(c(C)c2[C@H](OC(C)(C)C)C(=O)O)CC(=O)N(CC2CCOCC2)C3)cc(F)c2c1CCCO2 (atropisomer, axis not shown) [Example 113] | 14
2 | Cc1c(-c2c(C)c3c(c(C)c2[C@H](OC(C)(C)C)C(=O)O)CC(=O)N(CC2CCCCC2)C3)cc(F)c2c1CCCO2 (atropisomer, axis not shown) [Example 106, (S)-2-(tert-butoxy)-2-((R)-2-(cyclohexylmethyl)-7-(8-fluoro-5-methylchroman-6-yl)-5,8-dimethyl-3-oxo-1,2,3,4-tetrahydroisoquinolin-6-yl)acetic Acid] | 3
3 | Cc1ccc(-c2c(C)c3c(c(C)c2[C@H](OC(C)(C)C)C(=O)O)CCN(C2CCC4(CC2)CC4)C3)cc1 [Example 51, (S)-2-(tert-butoxy)-2-(5,8-dimethyl-2-(spiro[2.5]octan-6-yl)-7-(p-tolyl)-1,2,3,4-tetrahydroisoquinolin-6-yl)acetic Acid] | 11
4 | Cc1c(-c2c(C)c3c(c(C)c2[C@H](OC(C)(C)C)C(=O)O)CC(=O)N(C2CCCC(F)(F)C2)C3)cc(F)c2c1CCCO2 (stereo partly drawn) [Example 117, (2S)-2-(tert-butoxy)-2-((7R)-2-(3,3-difluorocyclohexyl)-7-(8-fluoro-5-methylchroman-6-yl)-5,8-dimethyl-3-oxo-1,2,3,4-tetrahydroisoquinolin-6-yl)acetic Acid] | 2
5 | Cc1ccc(-c2c(C)c3c(c(C)c2[C@H](OC(C)(C)C)C(=O)O)CCN(S(=O)(=O)CC2CCCCC2)C3)cc1 [Example 58, (S)-2-(tert-butoxy)-2-(2-((cyclohexylmethyl)sulfonyl)-5,8-dimethyl-7-(p-tolyl)-1,2,3,4-tetrahydroisoquinolin-6-yl)acetic Acid] | 284
6 | Cc1c(-c2c(C)c3c(c(C)c2[C@H](OC(C)(C)C)C(=O)O)CC(=O)N(C2CCCCC2(C)C)C3)cc(F)c2c1CCCO2 (stereo partly drawn) [Example 116, (2S)-2-(tert-butoxy)-2-((7R)-2-(2,2-dimethylcyclohexyl)-7-(8-fluoro-5-methylchroman-6-yl)-5,8-dimethyl-3-oxo-1,2,3,4-tetrahydroisoquinolin-6-yl)acetic Acid] | 3
7 | Cc1c(-c2c(C)c3c(c(C)c2[C@H](OC(C)(C)C)C(=O)O)CCN(C(=O)c2cccc(OC(C)C)c2)C3)cc(F)c2c1CCCO2 [Example 93, (S)-2-(tert-Butoxy)-2-((R)-7-(8-fluoro-5-methylchroman-6-yl)-2-(3-isopropoxybenzoyl)-5,8-dimethyl-1,2,3,4-tetrahydroisoquinolin-6-yl)acetic Acid] | 178
8 | Cc1ccc(-c2c(C)c3c(c(C)c2[C@H](OC(C)(C)C)C(=O)O)CCN(C(=O)C2CCc4ccccc4C2)C3)cc1 (stereo partly drawn) [Example 78, (2S)-2-(tert-butoxy)-2-(5,8-dimethyl-2-(1,2,3,4-tetrahydronaphthalene-2-carbonyl)-7-(p-tolyl)-1,2,3,4-tetrahydroisoquinolin-6-yl)acetic Acid] | 109
9 | Cc1ccc(-c2c(C)c3c(c(C)c2[C@H](OC(C)(C)C)C(=O)O)CCN(C(=O)NC2CCCCC2)C3)cc1 [Example 35, (S)-2-(tert-Butoxy)-2-(2-(cyclohexylcarbamoyl)-5,8-dimethyl-7-(p-tolyl)-1,2,3,4-tetrahydroisoquinolin-6-yl)acetic Acid] | 360
10 | Cc1ccc(-c2c(C)c3c(c(C)c2[C@H](OC(C)(C)C)C(=O)O)CCN(C2CCCCCCC2)C3)cc1 [Example 69, (S)-2-(tert-butoxy)-2-(2-cyclooctyl-5,8-dimethyl-7-(p-tolyl)-1,2,3,4-tetrahydroisoquinolin-6-yl)acetic Acid] | 6
11 | Cc1ccc(-c2c(C)c3c(c(C)c2[C@H](OC(C)(C)C)C(=O)O)CN(Cc2ccccc2)C(=O)C3)cc1 [Example 100, (S)-2-(2-Benzyl-5,8-dimethyl-3-oxo-6-(p-tolyl)-1,2,3,4-tetrahydroisoquinolin-7-yl)-2-(tert-butoxy)acetic Acid] | 1360
12 | Cc1c(-c2c(C)c3c(c(C)c2[C@H](OC(C)(C)C)C(=O)O)CC(=O)N(C2CCCC(C)(C)C2)C3)cc(F)c2c1CCCO2 (stereo partly drawn) [Example 111, (2S)-2-(tert-butoxy)-2-((7R)-2-(3,3-dimethylcyclohexyl)-7-(8-fluoro-5-methylchroman-6-yl)-5,8-dimethyl-3-oxo-1,2,3,4-tetrahydroisoquinolin-6-yl)acetic Acid] | 3
13 | Cc1c(-c2c(C)c3c(c(C)c2[C@H](OC(C)(C)C)C(=O)O)CC(=O)N(c2cccc(F)c2)C3)cc(F)c2c1CCCO2 (atropisomer, axis not shown) [Example 103, (S)-2-(tert-Butoxy)-2-((R)-7-(8-fluoro-5-methylchroman-6-yl)-2-(3-fluorophenyl)-5,8-dimethyl-3-oxo-1,2,3,4-tetrahydroisoquinolin-6-yl)acetic Acid] | 2
14 | Cc1c(-c2c(C)c3c(c(C)c2[C@H](OC(C)(C)C)C(=O)O)CCN(Cc2ccccc2)C3)cc(F)c2c1CCCO2 [Example 90, (S)-2-((R)-2-Benzyl-7-(8-fluoro-5-methylchroman-6-yl)-5,8-dimethyl-1,2,3,4-tetrahydroisoquinolin-6-yl)-2-(tert-butoxy)acetic Acid] | 67
15 | Cc1ccc(-c2c(C)c3c(c(C)c2C(OC(C)(C)C)C(=O)O)CN(C(=O)c2cccc(F)c2)CC3)cc1 (centres unmarked) [Example 6] | 347
16 | Cc1ccc(-c2c(C)c3c(c(C)c2[C@H](OC(C)(C)C)C(=O)O)CCN(S(=O)(=O)c2ccccc2)C3)cc1 [Example 41, (S)-2-(tert-butoxy)-2-(5,8-dimethyl-2-(phenylsulfonyl)-7-(p-tolyl)-1,2,3,4-tetrahydroisoquinolin-6-yl)acetic Acid] | 138
17 | Cc1ccc(-c2c(C)c3c(c(C)c2[C@H](OC(C)(C)C)C(=O)O)CN(S(=O)(=O)N2CCC(C)(C)CC2)CC3)cc1 [Example 15, (S)-2-(tert-Butoxy)-2-(2-((4,4-dimethylpiperidin-1-yl)sulfonyl)-5,8-dimethyl-6-(p-tolyl)-1,2,3,4-tetrahydroisoquinolin-7-yl)acetic Acid] | 113
18 | Cc1c(-c2c(C)c3c(c(C)c2[C@H](OC(C)(C)C)C(=O)O)CCN(C2CCCCC2)C3)cc(F)c2c1CCCO2 (atropisomer, axis not shown; (M)) [Example 67, (2S)(M)-2-(tert-butoxy)-2-(2-cyclohexyl-7-(8-fluoro-5-methylchroman-6-yl)-5,8-dimethyl-1,2,3,4-tetrahydroisoquinolin-6-yl)acetic Acid] | 5
19 | Cc1ccc(-c2c(C)c3c(c(C)c2[C@H](OC(C)(C)C)C(=O)O)CCN(C2CCCC2)C3)cc1 [Example 32, (S)-2-(tert-Butoxy)-2-(2-cyclopentyl-5,8-dimethyl-7-(p-tolyl)-1,2,3,4-tetrahydroisoquinolin-6-yl)acetic Acid] | 96
20 | Cc1ccc(-c2c(C)c3c(c(C)c2C(OC(C)(C)C)C(=O)O)CN(S(=O)(=O)c2cccc(F)c2)CC3)cc1 (centres unmarked) [Example 11, 2-(tert-Butoxy)-2-(2-((3-fluorophenyl)sulfonyl)-5,8-dimethyl-6-(p-tolyl)-1,2,3,4-tetrahydroisoquinolin-7-yl)acetic Acid] | 817
21 | Cc1ccc(-c2c(C)c3c(c(C)c2[C@H](OC(C)(C)C)C(=O)O)CN(S(=O)(=O)CC2CCCCC2)CC3)cc1 [Example 18, (S)-2-(tert-Butoxy)-2-(2-((cyclohexylmethyl)sulfonyl)-5,8-dimethyl-6-(p-tolyl)-1,2,3,4-tetrahydroisoquinolin-7-yl)acetic Acid] | 1180
22 | Cc1ccc(-c2c(C)c3c(c(C)c2[C@H](OC(C)(C)C)C(=O)O)CCN(C(=O)C2(C)CCCCC2)C3)cc1 [Example 76, (S)-2-(tert-butoxy)-2-(5,8-dimethyl-2-(1-methylcyclohexanecarbonyl)-7-(p-tolyl)-1,2,3,4-tetrahydroisoquinolin-6-yl)acetic Acid] | 41
23 | Cc1ccc(-c2c(C)c3c(c(C)c2[C@H](OC(C)(C)C)C(=O)O)CCN(C(=O)c2ccccc2)C3)cc1 [Example 48, (S)-2-(2-benzoyl-5,8-dimethyl-7-(p-tolyl)-1,2,3,4-tetrahydroisoquinolin-6-yl)-2-(tert-butoxy)acetic Acid] | 325
24 | Cc1ccc(-c2c(C)c3c(c(C)c2[C@H](OC(C)(C)C)C(=O)O)CCN(Cc2cccc(F)c2)C3)cc1 [Example 30, (S)-2-(tert-Butoxy)-2-(2-(3-fluorobenzyl)-5,8-dimethyl-7-(p-tolyl)-1,2,3,4-tetrahydroisoquinolin-6-yl)acetic Acid] | 382
25 | Cc1ccc(-c2c(C)c3c(c(C)c2C(OC(C)(C)C)C(=O)O)CN(CC2CCCCC2)CC3)cc1 (centres unmarked) [Example 3, 2-(tert-Butoxy)-2-(2-(cyclohexylmethyl)-5,8-dimethyl-6-(p-tolyl)-1,2,3,4-tetrahydroisoquinolin-7-yl)acetic Acid] | 3200
26 | Cc1ccc(-c2c(C)c3c(c(C)c2[C@H](OC(C)(C)C)C(=O)O)CN(C(=O)CC(C)(C)C)CC3)cc1 [Example 20, (S)-2-(tert-Butoxy)-2-(2-(3,3-dimethylbutanoyl)-5,8-dimethyl-6-(p-tolyl)-1,2,3,4-tetrahydroisoquinolin-7-yl)acetic Acid] | 119
